Legend:
[1] = biological target: binding of tritiated LTB4 to guinea pig lung membranes (Cavia porcellus, UniProt H0VYV8); assay: biochemical; conditions: read-out: pKi (mean -log Ki) (converted)
Method: The effectiveness of compounds of Formula I to inhibit the binding of tritiated LTB4 to guinea pig lung membranes was determined as follows.
The binding reaction was terminated by the addition of 1 mL ice cold wash buffer (25 mM Tris-HCl, pH 7.5) followed immediately by vacuum filtration over Whatman GF/C glass fiber filters using a Brandel (Gaithersburg, Md.) 48 place harvester. The filters were washed three times with 1 mL of wash buffer. Retained radioactivity was determined by liquid scintillation counting at 50% counting efficiency using Ready Protein Plus cocktail (Beckman, Fullerton, Calif.). Nondisplaceable binding was determined in the presence of 1 μM LTB4 and was usually less than 10% of total binding. […] The data reported below is the mean -log Ki, otherwise known as the pKi, for n experiments.

[2] = biological target: T1, human synovial phospholipase A2 (PLA2) (Homo sapiens, UniProt P14555); assay: in vitro inhibition of human synovial phospholipase A2 (PLA2); format: biochemical
T1 sequence (P14555 21-144): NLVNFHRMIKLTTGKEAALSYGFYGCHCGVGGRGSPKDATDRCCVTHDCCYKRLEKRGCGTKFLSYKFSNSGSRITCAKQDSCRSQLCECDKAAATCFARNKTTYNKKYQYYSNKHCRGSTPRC

[3] = biological target: T2, human cytosolic phospholipase A2 (PLA2) (Homo sapiens, UniProt P47712); assay: in vitro inhibition of human cytosolic phospholipase A2 (PLA2); format: biochemical
T2 sequence (P47712 1-749): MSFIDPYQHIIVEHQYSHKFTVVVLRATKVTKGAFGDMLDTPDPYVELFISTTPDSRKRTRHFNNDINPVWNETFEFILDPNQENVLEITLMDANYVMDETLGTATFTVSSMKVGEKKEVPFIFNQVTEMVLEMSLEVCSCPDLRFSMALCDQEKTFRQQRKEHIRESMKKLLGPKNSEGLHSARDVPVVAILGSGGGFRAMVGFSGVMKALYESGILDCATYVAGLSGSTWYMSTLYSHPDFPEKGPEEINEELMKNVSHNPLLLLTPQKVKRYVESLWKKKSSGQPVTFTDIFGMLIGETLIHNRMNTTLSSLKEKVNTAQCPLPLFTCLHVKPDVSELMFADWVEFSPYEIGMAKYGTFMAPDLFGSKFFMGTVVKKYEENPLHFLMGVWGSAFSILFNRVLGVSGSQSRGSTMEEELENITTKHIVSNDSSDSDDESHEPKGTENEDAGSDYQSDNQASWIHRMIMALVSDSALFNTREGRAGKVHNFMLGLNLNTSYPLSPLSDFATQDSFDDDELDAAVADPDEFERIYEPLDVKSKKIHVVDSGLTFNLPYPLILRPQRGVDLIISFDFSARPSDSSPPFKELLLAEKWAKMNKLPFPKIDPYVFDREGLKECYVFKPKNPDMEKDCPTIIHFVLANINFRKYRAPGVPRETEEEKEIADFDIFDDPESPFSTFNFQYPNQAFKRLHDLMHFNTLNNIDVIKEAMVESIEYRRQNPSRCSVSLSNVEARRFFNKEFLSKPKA

Sequence of binding of tritiated LTB4 to guinea pig lung membranes (H0VYV8 1-348): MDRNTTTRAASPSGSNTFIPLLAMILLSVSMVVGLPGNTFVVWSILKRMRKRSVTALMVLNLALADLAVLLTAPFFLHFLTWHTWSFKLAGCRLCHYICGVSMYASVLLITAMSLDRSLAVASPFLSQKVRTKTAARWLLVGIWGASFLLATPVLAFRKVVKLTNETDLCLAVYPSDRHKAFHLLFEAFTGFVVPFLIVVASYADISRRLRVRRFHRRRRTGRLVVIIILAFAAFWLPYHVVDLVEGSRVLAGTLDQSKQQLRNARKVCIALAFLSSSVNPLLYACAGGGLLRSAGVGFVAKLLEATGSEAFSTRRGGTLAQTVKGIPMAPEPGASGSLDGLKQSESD

Ki [1]: 2.95 nM | inhibition of human synovial PLA2 [2]: in vitro inhibitors | inhibition of human cytosolic PLA2 [3]: in vitro inhibitors
SMILES: CCCc1c(OCCCOc2cc(O)c(-c3ccc(F)cc3)cc2CC)ccc2c1OC(C(=O)O)CC2 (stereo not drawn) [Example 55, 8-Propyl-7-[3-[4-(4-fluorophenyl)-2-ethyl-5-hydroxyphenoxy]propoxy]-3,4-dihydro-2H-1-benzopyran-2-carboxylic acid]
